From US10098913B2, “Composition of stem cells having highly expressed FAS ligand” (UNIVERSITY OF SOUTHERN CALIFORNIA, priority 2013, dated 2018)
Entries after “also recorded” stand apart in the source; their conditions may differ.

Tests used:
Fas-L = Fas-L expression in MSCs (western blotting); format: cell-based, mice
Text: Bone marrow cells were flushed from the bone cavity of femurs and tibias of B6 mice (C57BL/6 J) with about 2% heat inactivated fetal bovine serum (Equitech-Bio, Kerrville, Tex., USA) in PBS, and MSCs positive for CD73, CD90, CD105, CD146, CD166, Sca-1 and SSEA-4, but negative for CD11b, CD31, CD34 and CD45, were obtained as previously described by Liu et al. “Mesenchymal stem cell-based tissue regeneration is governed by recipient T lymphocytes via IFN-γ and TNF-α” Nat Med 2011, 17:1594-1601. The entire content of this publication is incorporated herein by reference. The cells with MSC character were cultured with alpha minimum essential medium (Invitrogen) supplemented with about 20% fetal bovine serum and 2 mM L-glutamine (Invitrogen) in a humidified atmosphere of about 95% air and about 5% CO2 at about 37° C. for about 3 days before co-culture. See Oyajobi et al. “Dual effects of macrophage inflammatory protein-1alpha on osteolysis and tumor burden in the murine 5TGM1 model of myeloma bone disease” Blood 2003, 102:311-319. The entire content of this publication is incorporated herein by reference. Additionally, MSCs, which had no Fas-L, were isolated from generalized lymphoproliferative disease (gld) mice for use in comparative experiments. B6 and gld mice in the same background ([…]) were purchased from the Jackson Laboratory. […]

5TGM1 MM cells [1] = test: 5TGM1 multiple myeloma model mice: survival and cancroid pearls; format: in vivo
Procedure: A 5TGM1 MM model was conducted in weight-matched, 8-week-old to 10-week-old female bg-nu/nu-xid mice from the Jackson Lab (Bar Harbor, Me., USA). The use of animals for research was approved through the Institutional Ethics Committee/Institutional Review Board of the University of Southern California (protocol #10941). The mice were housed in isolator cages, and autoclaved chow and acidified water were provided ad libitum. Disseminated MM was induced through the intravenous inoculation of about 6×10^6 5TGM1 cells in about 200 μl PBS in bg-nu/nu-xid mice through the tail vein (about 6×10^6/10 g body weight). After tumor cell inoculation, multiple MM model mice were randomized to receive the injection of either MSCs (once, about 1×10^6 MSCs/10 g body weight) via the tail vein (MSC group) or […] (L-PAM; weekly, about 50 μg/10 g body weight) in the abdominal cavity (L-PAM group), as shown in FIG. 1A. See Akiyama et al. “Mesenchymal-stem-cell-induced immunoregulation involves FAS-ligand/FAS-mediated T cell apoptosis” Cell Stem Cell 2012, 10:544-555. The entire content of this publication is incorporated herein by reference. L-Phenylalanine mustard, or L-PAM, otherwise known as melphalan, is used as the standard treatment in older MM patients. See Musto P. et al. “Melphalan: old and new uses of a still master drug for multiple myeloma” Expert Opin Investig Drugs 2007, 16:1467-1487. The entire content of this publication is incorporated herein by reference. MM model mice with no treatment served as the positive control (MM group). Original nude mice with no treatment served as the negative control (Control group). The 6-week survival rates of the mice in different groups were compared. After about 4 weeks of feeding, the cancroid pearls in the neck, tail root and abdominal cavity of the mice in different groups were identified for analysis. […]

5TGM1 MM cells [2] = test: Microcomputed tomography of bone density in MM model mice; format: in vivo; details: microcomputed tomography after about 4 weeks; P<0.05
Procedure: A 5TGM1 MM model was conducted in weight-matched, 8-week-old to 10-week-old female bg-nu/nu-xid mice from the Jackson Lab (Bar Harbor, Me., USA). The use of animals for research was approved through the Institutional Ethics Committee/Institutional Review Board of the University of Southern California (protocol #10941). The mice were housed in isolator cages, and autoclaved chow and acidified water were provided ad libitum. Disseminated MM was induced through the intravenous inoculation of about 6×10^6 5TGM1 cells in about 200 μl PBS in bg-nu/nu-xid mice through the tail vein (about 6×10^6/10 g body weight). […]
The cross-sectional volumetric bone mineral density was measured in right femur diaphysis of the mice in each group after about 4 weeks of feeding (for each group, n=6). […] Using two-dimensional images, a region of interest in secondary spongiosa was manually drawn near the endocortical surface, and cancellous bone morphometric parameters including the bone volume relative to the tissue volume (percentage) and the trabecular thickness (millimeters) were assessed. A trained observer blinded to the composition of the different groups and treatments received analyzed the number and surface area of radiolucent lesions.

5TGM1 MM cells [3] = test: MM cell metastasis in lungs and kidneys of MM model mice; format: in vivo; details: after about 4 weeks
Procedure: A 5TGM1 MM model was conducted in weight-matched, 8-week-old to 10-week-old female bg-nu/nu-xid mice from the Jackson Lab (Bar Harbor, Me., USA). The use of animals for research was approved through the Institutional Ethics Committee/Institutional Review Board of the University of Southern California (protocol #10941). The mice were housed in isolator cages, and autoclaved chow and acidified water were provided ad libitum. Disseminated MM was induced through the intravenous inoculation of about 6×10^6 5TGM1 cells in about 200 μl PBS in bg-nu/nu-xid mice through the tail vein (about 6×10^6/10 g body weight). After tumor cell inoculation, multiple MM model mice were randomized to receive the injection of either MSCs (once, about 1×10^6 MSCs/10 g body weight) via the tail vein (MSC group) or […] (L-PAM; weekly, about 50 μg/10 g body weight) in the abdominal cavity (L-PAM group), as shown in FIG. 1A. See Akiyama et al. “Mesenchymal-stem-cell-induced immunoregulation involves FAS-ligand/FAS-mediated T cell apoptosis” Cell Stem Cell 2012, 10:544-555. The entire content of this publication is incorporated herein by reference. L-Phenylalanine mustard, or L-PAM, otherwise known as melphalan, is used as the standard treatment in older MM patients. […]

[4] = neck, tail root and abdominal cavity, after about 4 weeks, versus MM group

**Q.** Which “expression of Fas-L in MSCs after aspirin treatment” value (Fas-L) does the source give for `CC(=O)Oc1ccccc1C(=O)O` [Aspirin, aspirin] here?
**A.** enhanced expression of Fas-L in MSCs

**Q.** With `N[C@@H](Cc1ccc(N(CCCl)CCCl)cc1)C(=O)O` [L-PAM, L-Phenylalanine mustard] as the compound, how does the 6-week survival rate (5TGM1 MM cells [1]; MM model mice, MSCs once via tail vein, L-PAM weekly in abdominal cavity, versus untreated MM group, P<0.05) read?
**A.** prolonged survival compared with the MM group; also recorded: higher than the MM group

**Q.** And the “number of cancroid pearls” value (5TGM1 MM cells [1]; [4])?
**A.** no significant difference

**Q.** What about the “size of cancroid pearls” value (5TGM1 MM cells [1]; [4]) of the same compound?
**A.** smaller compared with the MM group

**Q.** What about the “bone density (BD) in lumbus and collum femoris” value (5TGM1 MM cells [2]) of the same compound?
**A.** MM group was much lower than those of the MSC group, the L-PAM group

**Q.** What about the “metastasis rate in the kidney tissue” value (5TGM1 MM cells [3]) of the same compound?
**A.** no significant difference
